Here are results for 8 molecules from EP0761667A1, “Heterocyclic substituted pseudopeptides” (BAYER AG, priority 1995, dated 1997).

Like-named read-outs stand apart in the source and are kept apart here.

What is called IC50 is the concentration that gives 50% inhibition.

The target in one assay is T1, HIV-1-Protease (Human immunodeficiency virus type 1 group M subtype B, UniProt P04585).
T1 construct: Gereinigte HIV-Protease wurde mit synthetischem Peptid
As to the kind of experiment: HIV-specific protease enzyme test (purified HIV protease, synthetic peptide substrate, RP-HPLC analysis of cleavage products). In kind it is biochemical. The source says: Es wurde überraschend gefunden, daß die Verbindungen der allgemeinen Formel (I) eine außerordentlich starke Wirkung gegen Retroviren besitzen. Dies wird mit einem HIV-spezifischen Protease-Enzymtest belegt.
Die Ergebnisse der unten aufgeführten Beispiele wurden nach dem in der folgenden Literaturangabe [vgl. Hansen, J., Billich, S., Schulze, T., Sukrow, S. and Mölling, K. (1988), EMBO Journal, Vol, 7, No. 6, pp. 1785 - 1791] beschriebenen HIV-Testsystem ermittelt: Gereinigte HIV-Protease wurde mit synthetischem Peptid, das eine Schnittstelle im Gag-Precursor-Protein imitiert und eine in vivo-Spaltstelle der HIV-Protease darstellt, inkubiert. Die entstandenen Spaltprodukte des synthetischen Peptids wurden über Reverse Phase High Performance Liquid Chromatography (RP-HPLC) analysiert. […]

A further assay concerns HIV. Description: HIV infection in cell culture (PBL), microscopic evaluation of syncytia formation. The format is cell-based. The conditions noted are these: HIV-infected normal human blood lymphocytes (PBL's), day 3 to 6 after infection; for PBL IC95: suppression of virus-induced syncytia; for IC50: Human immunodeficiency virus 1, Lymphocyte, 72 h, 50% suppression of virus-induced syncytia. As to the method: HIV-Infektion in Zellkultur
Der HIV-Test wurde mit geringen Modifikationen nach der Methode von Pauwels et al. [vgl. Journal of Virological Methods 20, (1988), 309-321] durchgeführt.
Normale menschliche Blutlymphozyten (PBL's) wurden über Ficoll-Hypaque angereichert und im RPMI 1640, 20% fötales Kälberserum mit Phytohaemagglutinin (90 µg/ml) und Interleukin-2 (40 U/ml) stimuliert. Zur Infektion mit dem infektiösen HIV wurden PBL's pelletiert und das Zellpellet wurde anschließend in 1 ml HIV-Virusadsorptionslösung suspendiert und 1 Stunde bei 37°C inkubiert.
Die Virusadsorptionslösung wurde zentrifugiert und das infizierte Zellpellet in Wachstumsmedium aufgenommen, so daß 1 x 10^5 Zellen pro ml eingestellt waren. Die derart infizierten Zellen wurden zu 1 x 10^4 Zellen/Napf in die Näpfe von 96er Mikrotiterplatten pipettiert.
Die erste vertikale Reihe der Mikrotiterplatte enthielt nur Wachstumsmedium und Zellen, die nicht infiziert, aber ansonsten genauso wie oben beschrieben, behandelt worden waren (Zellkontrolle). Die zweite vertikale Reihe der Mikrotiterplatte erhielt nur HIV-infizierte Zellen (Viruskontrolle) in Wachstumsmedium. Die übrigen Näpfe enthielten die erfindungsgemäßen Verbindungen in unterschiedlichen Konzentrationen, ausgehend von den Näpfen der 3. vertikalen Reihe der Mikrotiterplatte, von der die Prüfsubstanzen in 2er Schritten 2^10fach verdünnt wurden.
Die Testansätze wurden so lange bei 37°C inkubiert, bis in der unbehandelten Viruskontrolle die für das HIV typische Syncytienbildung auftrat (zwischen Tag 3 und 6 nach Infektion), die dann mikroskopisch ausgewertet wurde. In der unbehandelten Viruskontrolle resultierten unter diesen Testbedingungen etwa 20 Syncytien, während die unbehandelte Zellkontrolle keine Syncytien aufwies.
Die IC50-Werte wurden als die Konzentration der behandelten und infizierten Zellen ermittelt, bei der 50% (ca. 10 Syncytien) der virusinduzierten Syncytien durch die Behandlung mit der erfindungsgemäßen Verbindung unterdrückt waren. […]

Setting [1] is: purified HIV protease, synthetic peptide imitating a Gag precursor cleavage site.
Setting [2] is: purified HIV protease, synthetic peptide imitating a Gag precursor cleavage site, concentration giving 50% inhibition of protease activity, read-out: HIV-1-Protease-Inhibition IC50.

Regarding `NC(=O)C[C@H](NC(=O)OC1CCOC1)C(=O)N[C@@H](Cc1ccccc1)[C@H](O)CN1[C@H](C(F)(F)F)C[C@@H]2CCC[C@@H]21` (stereo partly drawn) [Beispiel 1, (2S,3S)-3-(Tetrahydrofuran-3-yl-oxycarbonyl-L-asparaginyl)amino-1-[(S,S,S)-3-trifluormethyl-2-azabicyclo[3.3.0]octan-2-yl}-2-hydroxy-4-phenylbutan], the half-inhibitory concentration (IC50) on HIV-1-Protease was found to be 30 nM. Moreover, the “HIV-1-Protease-Inhibition IC95” value at HIV-1-Protease (setting [1]) is 3,8 x 10^-7 Mol/l. Also, in the assay on HIV, the “PBL IC95” value is recorded as 3,5 x 10^-6 Mol/l and the half-maximal inhibitory concentration (IC50) amounted to 2200 nM.
Regarding `NC(=O)C[C@H](NC(=O)O[C@H]1CCOC1)C(=O)N[C@@H](Cc1ccccc1)[C@H](O)CN1[C@H](C(F)(F)F)C[C@@H]2CCC[C@@H]21` [Beispiel 2], the “HIV-1-Protease-Inhibition IC95” value on HIV-1-Protease (setting [1]) is reported as 3,6 x 10^-9 Mol/l. In addition, the IC50 on HIV-1-Protease (setting [2]) stood at 0.27 nM. In addition, in the assay on HIV, the “PBL IC95” value is recorded as 3,5 x 10^-6 Mol/l and the IC50 was 2000 nM.
On to `NC(=O)C[C@H](NC(=O)OC1CCS(=O)(=O)C1)C(=O)N[C@@H](Cc1ccccc1)[C@H](O)CN1[C@H](C(F)(F)F)C[C@@H]2CCC[C@@H]21` (stereo partly shown) [Beispiel 3], for which the half-inhibitory concentration (IC50) at HIV-1-Protease (setting [2]) is 9.5 nM. Besides, in the assay with HIV, the “PBL IC95” value is listed as 1,9 x 10^-6 Mol/l and the IC50 came out at 1200 nM.
For `NC(=O)C[C@H](NC(=O)OC1C=CS(=O)(=O)C1)C(=O)N[C@@H](Cc1ccccc1)[C@H](O)CN1[C@H](C(F)(F)F)C[C@@H]2CCC[C@@H]21` (stereo partly shown) [Beispiel 4], on HIV-1-Protease (setting [1]), the “HIV-1-Protease-Inhibition IC95” value is given as 3,9 x 10^-9 Mol/l. The results for the IC50 on HIV-1-Protease (setting [2]) and with HIV were 2.1 nM and over 16000 nM, respectively.
At HIV-1-Protease, `O=C(N[C@@H](Cc1ccccc1)[C@H](O)CN1[C@H](C(F)(F)F)C[C@@H]2CCC[C@@H]21)OC1CCOC1` (stereo partly drawn) [Beispiel 5, (2R,3S)-3-(Tetrahydrofuran-3-yl-oxycarbonyl)-amino-1-{(S,S,S)-3-trifluormethyl-2-azabicyclo[3.3.0]octan-2-yl}-2-hydroxy-4-phenylbutan] gave an IC50 of 4.1 nM. Further, on HIV-1-Protease (setting [1]), the “HIV-1-Protease-Inhibition IC95” value is reported as 4,7 x 10^-8 Mol/l. Also, in the assay with HIV, the “PBL IC95” value was 2,2 x 10^-5 Mol/l and half-maximal inhibition (IC50) required 14000 nM.
Consider `O=C(N[C@@H](Cc1ccccc1)[C@H](O)CN1[C@H](C(F)(F)F)C[C@@H]2CCC[C@@H]21)O[C@H]1CCOC1` [Beispiel 6], for which, on HIV-1-Protease (setting [1]), the “HIV-1-Protease-Inhibition IC95” value was 5,0 x 10^-8 Mol/l. For the same molecule, the IC50 on HIV-1-Protease (setting [2]) amounted to 25 nM; in the assay on HIV, 2800 nM. Moreover, the “PBL IC95” value with HIV is given as 1,3 x 10^-5 Mol/l.
For `O=C(N[C@@H](Cc1ccccc1)[C@H](O)CN1[C@H](C(F)(F)F)C[C@@H]2CCC[C@@H]21)OC1CCS(=O)(=O)C1` (stereo partly shown) [Beispiel 7], the IC50 was found to be 25 nM at HIV-1-Protease (setting [2]) and 6200 nM with HIV.
Regarding `O=C(N[C@@H](Cc1ccccc1)[C@H](O)CN1[C@H](C(F)(F)F)C[C@@H]2CCC[C@@H]21)OC1C=CS(=O)(=O)C1` (stereo partly shown) [Beispiel 8], at HIV-1-Protease (setting [1]), the “HIV-1-Protease-Inhibition IC95” value is on record as 4,1 x 10^-8 Mol/l. Further, the figures for the half-inhibitory concentration (IC50) at HIV-1-Protease (setting [2]) and in the assay on HIV were 3.2 nM and 17000 nM, respectively. Moreover, the “PBL IC95” value in the assay on HIV is over 2e-05 mol/L.
